Laboratory results as given in US7279491B2 (Janssen Pharmaceutica N.V., priority 2002, dated 2007).

What follows are compounds tested against T1, human histamine H3 receptor (Homo sapiens, UniProt Q9Y5N1) (assay: {3H}-N-methylhistamine binding to membranes of histamine H3 receptor-expressing SK-N-MC cells). Conditions: 0.8 nM {3H}-N-methylhistamine, 45 min at 25° C., Ki=(IC50)/(1+({L}/(Kd)), Kd 800 pM).
T1 construct: One microgram of supercoiled H3 receptor cDNA was added to the cells and mixed; expressed in transfected cells; membranes
Experimental: Transfection of Cells with Human Histamine Receptor
A 10 cm tissue culture dish with a confluent monolayer of SK-N-MC cells was split two days prior to transfection. Using sterile technique the media was removed and the cells were detached from the dish by the addition of trypsin. One fifth of the cells were then placed onto a new 10 cm dish. Cells were grown in a 37° C. incubator with 5% CO2 in Minimal Essential Media Eagle with 10% Fetal Bovine Serum. After two days cells were approximately 80% confluent. These were removed from the dish with trypsin and pelleted in a clinical centrifuge. The pellet was then re-suspended in 400 μL complete media and transferred to an electroporation cuvette with a 0.4 cm gap between the electrodes. One microgram of supercoiled H3 receptor cDNA was added to the cells and mixed. The voltage for the electroporation was set at 0.25 kV, the capacitance was set at 960 μF. After electroporation the cells were diluted into 10 mL complete media and plated onto four 10 cm dishes. Because of the variability in the efficiency of electroporation, four different concentrations of cells were plated. The ratios used were; 1:20, 1:10, 1:5, with the remainder of the cells being added to the fourth dish. The cells were allowed to recover for 24 h before adding the selection media (complete media with 600 μg/mL G418). After 10 days dishes were analyzed for surviving colonies of cells. Dishes with well-isolated colonies were used. Cells from individual colonies were isolated and tested. SK-N-MC cells were used because they give efficient coupling for inhibition of adenylate cyclase. The clones that gave the most robust inhibition of adenylate cyclase in response to histamine were used for further study.
{^3H}-N-methylhistamine Binding
Cell pellets from histamine H3 receptor-expressing SK-N-MC cells were homogenized in 20 mM Tris HCl/0.5 mM EDTA. Supernatants from an 800 g spin were collected, recentrifuged at 30,000 g for 30 min. Pellets were re-homogenized in 50 mM Tris/5 mM EDTA (pH 7.4). Membranes were incubated with 0.8 nM {^3H}-N-methylhistamine plus/minus test compounds for 45 min at 25° C. and harvested by rapid filtration over GF/C glass fiber filters (pretreated with 0.3% polyethylenimine) followed by four washes with ice-cold buffer. Filters were dried, added to 4 mL scintillation cocktail and then counted on a liquid scintillation counter. Non-specific binding was defined with 10 μM histamine. The pKi values were calculated based on a Kd of 800 pM and a ligand concentration ({L}) of 800 pM according to the formula: Ki=(IC50)/(1+({L}/(Kd))

T1 sequence (Q9Y5N1 whole entry): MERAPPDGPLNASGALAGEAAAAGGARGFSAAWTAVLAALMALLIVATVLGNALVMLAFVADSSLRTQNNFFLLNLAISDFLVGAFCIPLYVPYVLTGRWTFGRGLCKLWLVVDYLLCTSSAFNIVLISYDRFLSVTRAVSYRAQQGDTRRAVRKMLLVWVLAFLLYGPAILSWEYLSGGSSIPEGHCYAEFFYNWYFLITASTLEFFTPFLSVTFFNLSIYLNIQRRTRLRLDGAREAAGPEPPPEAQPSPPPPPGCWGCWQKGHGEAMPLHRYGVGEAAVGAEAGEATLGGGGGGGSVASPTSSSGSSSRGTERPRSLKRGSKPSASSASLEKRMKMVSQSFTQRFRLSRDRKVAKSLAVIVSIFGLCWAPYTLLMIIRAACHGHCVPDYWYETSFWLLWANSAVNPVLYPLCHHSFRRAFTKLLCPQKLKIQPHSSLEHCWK

Structure (SMILES) | Ki [nM]
FC(F)(F)c1cc(CN2CCCCC2)ccc1N1CCC(CN2CCCC2)CC1 [Example 68, 1-[4-(4-Pyrrolidin-1-ylmethyl-piperidin-1-yl)-3-trifluoromethyl-benzyl]-piperidine] | 14
O=[N+]([O-])c1cc(CN2CCCCC2)ccc1N1CCC(CN2CCCC2)CC1 [Example 69] | 2
O=[N+]([O-])c1cc(CN2CCOCC2)ccc1N1CCC(CN2CCCC2)CC1 [Example 70, 4-[3-Nitro-4-(4-pyrrolidin-1-ylmethyl-piperidin-1-yl)-benzyl]-morpholine] | 36
O=[N+]([O-])c1cc(CN2CCC(O)CC2)ccc1N1CCC(CN2CCCC2)CC1 [Example 71, 1-[3-Nitro-4-(4-pyrrolidin-1-ylmethyl-piperidin-1-yl)-benzyl]-piperidin-4-ol] | 5
FC(F)(F)c1cc(N2CCC(CN3CCCC3)CC2)ccc1CN1CCCCC1 [Example 72, 1-[4-(4-Pyrrolidin-1-ylmethyl-piperidin-1-yl)-2-trifluoromethyl-benzyl]-piperidine] | 8
Cc1cc(CN2CCN(C(C)C)CC2)ccc1N1CCC(CN2CCCC2)CC1 [Example 73, 1-Isopropyl-4-[3-methyl-4-(4-pyrrolidin-1-ylmethyl-piperidin-1-yl)-benzyl]-piperazine] | 16
Cc1cc(CN2CCCC2)ccc1N1CCC(CN2CCCC2)CC1 [Example 74] | 1
Cc1cc(CN2CCCCC2)ccc1N1CCC(CN2CCCC2)CC1 [Example 75] | 6
FC(F)(F)c1cc(CN2CCC(N3CCCC3)CC2)ccc1N1CCC(CN2CCCC2)CC1 [Example 76, 1-{1-[4-(4-Pyrrolidin-1-yl-piperidin-1-ylmethyl)-2-trifluoromethyl-phenyl]-piperidin-4-ylmethyl}-pyrrolidine] | 9
FC(F)(F)c1ccc(C2CCN(Cc3ccc(N4CCC(CN5CCCC5)CC4)cc3C(F)(F)F)CC2)cc1 [Example 77, 1-(1-{3-Trifluoromethyl-4-[4-(4-trifluoromethyl-phenyl)-piperidin-1-ylmethyl]-phenyl}-piperidin-4-ylmethyl)-pyrrolidine] | 160
Fc1cc(CN2CCC(c3ccccc3)CC2)ccc1N1CCC(CN2CCCC2)CC1 [Example 78, 1-{1-[2-Fluoro-4-(4-phenyl-piperidin-1-ylmethyl)-phenyl]-piperidin-4-ylmethyl}-pyrrolidine] | 7
CN(C)Cc1ccc(N2CCC(CN3CCCC3)CC2)c(F)c1 [Example 79, [3-Fluoro-4-(4-pyrrolidin-1-ylmethyl-piperidin-1-yl)-benzyl]-dimethyl-amine] | 4
Fc1cc(CN2CCCCC2)ccc1N1CCC(CN2CCCC2)CC1 [Example 80, 1-[3-Fluoro-4-(4-pyrrolidin-1-ylmethyl-piperidin-1-yl)-benzyl]-piperidine] | 4
FC(F)(F)c1cc(N2CCC(CN3CCCC3)CC2)ccc1CN1CCOCCOCCOCCOCC1 [Example 81, 13-[4-(4-pyrrolidin-1-ylmethyl-piperidin-1-yl)-2-trifluoromethyl-benzyl]-1,4,7,10-tetraoxa-13-aza-cyclopentadecane Ditrifluoromethanesulfonate] | 34
OCC1CCN(Cc2ccc(N3CCC(CN4CCCC4)CC3)c(C(F)(F)F)c2)CC1 [Example 82, {1-[4-(4-Pyrrolidin-1-ylmethyl-piperidin-1-yl)-3-trifluoromethyl-benzyl]-piperidin-4-yl}-methanol] | 170
